Experimental data from the NIST ThermoML archive (doi:10.1016/j.jct.2017.06.002).
Numbers after ± are expanded uncertainties.

Assay: xn = mol fraction of the nth substance listed
Settings: 100 kPa, Liquid; for viscosity: Concentric cylinders viscometry; for mass density: Vibrating tube method

COCOCOCOCOC [2,4,6,8,10-pentaoxaundecane] + COCOCOC
Settings	mass density [kg/m3]	viscosity [mPa·s]
288.15 K, x2 = 0	1078.8 ± 2	2.207 ± 0.051
288.15 K, x2 = 0.12	1069.8 ± 2.5	1.99 ± 0.062
288.15 K, x2 = 0.24	1061.6 ± 2.5	1.788 ± 0.061
288.15 K, x2 = 0.35	1053.5 ± 2.5	1.608 ± 0.06
288.15 K, x2 = 0.45	1045.4 ± 2.6	1.449 ± 0.058
288.15 K, x2 = 0.55	1037.2 ± 2.6	1.318 ± 0.056
288.15 K, x2 = 0.65	1029 ± 2.6	1.209 ± 0.055
288.15 K, x2 = 0.74	1021 ± 2.7	1.119 ± 0.054
288.15 K, x2 = 0.83	1013.2 ± 2.6	1.043 ± 0.053
288.15 K, x2 = 0.92	1005.8 ± 2.6	0.977 ± 0.052
293.15 K, x2 = 0	1073.3 ± 2	2.015 ± 0.051
293.15 K, x2 = 0.12	1064.6 ± 2.4	1.835 ± 0.058
293.15 K, x2 = 0.24	1056.5 ± 2.4	1.669 ± 0.058
293.15 K, x2 = 0.35	1048.6 ± 2.5	1.518 ± 0.058
293.15 K, x2 = 0.45	1040.6 ± 2.6	1.378 ± 0.057
293.15 K, x2 = 0.55	1032.6 ± 2.6	1.265 ± 0.055
293.15 K, x2 = 0.65	1024.6 ± 2.6	1.166 ± 0.054
293.15 K, x2 = 0.74	1016.7 ± 2.6	1.082 ± 0.053
293.15 K, x2 = 0.83	1009 ± 2.6	1.019 ± 0.052
293.15 K, x2 = 0.92	1001.8 ± 2.6	0.962 ± 0.052
298.15 K, x2 = 0	1068.2 ± 2	1.848 ± 0.051
298.15 K, x2 = 0.12	1059.7 ± 2.4	1.697 ± 0.056
298.15 K, x2 = 0.24	1051.9 ± 2.4	1.557 ± 0.056
298.15 K, x2 = 0.35	1043.9 ± 2.5	1.43 ± 0.056
298.15 K, x2 = 0.45	1036 ± 2.6	1.315 ± 0.055
298.15 K, x2 = 0.55	1028 ± 2.6	1.212 ± 0.054
298.15 K, x2 = 0.65	1020.1 ± 2.6	1.125 ± 0.053
298.15 K, x2 = 0.74	1012.1 ± 2.7	1.05 ± 0.053
298.15 K, x2 = 0.83	1004.4 ± 2.6	0.9918 ± 0.052
298.15 K, x2 = 0.92	996.8 ± 2.6	0.943 ± 0.051
303.15 K, x2 = 0	1063.4 ± 2	1.703 ± 0.051
303.15 K, x2 = 0.12	1055.2 ± 2.4	1.575 ± 0.055
303.15 K, x2 = 0.24	1047.3 ± 2.4	1.452 ± 0.055
303.15 K, x2 = 0.35	1039.4 ± 2.5	1.344 ± 0.054
303.15 K, x2 = 0.45	1031.5 ± 2.6	1.243 ± 0.054
303.15 K, x2 = 0.55	1023.5 ± 2.6	1.153 ± 0.053
303.15 K, x2 = 0.65	1015.4 ± 2.6	1.079 ± 0.053
303.15 K, x2 = 0.74	1007.4 ± 2.7	1.017 ± 0.052
303.15 K, x2 = 0.83	999.4 ± 2.7	0.97 ± 0.051
303.15 K, x2 = 0.92	991.7 ± 2.7	0.9255 ± 0.051
308.15 K, x2 = 0	1059.1 ± 2	1.576 ± 0.051
308.15 K, x2 = 0.12	1050.9 ± 2.4	1.466 ± 0.054
308.15 K, x2 = 0.24	1043 ± 2.4	1.361 ± 0.054
308.15 K, x2 = 0.35	1035 ± 2.5	1.264 ± 0.054
308.15 K, x2 = 0.45	1027.2 ± 2.6	1.175 ± 0.053
308.15 K, x2 = 0.55	1019.2 ± 2.6	1.099 ± 0.052
308.15 K, x2 = 0.65	1011.3 ± 2.6	1.036 ± 0.052
308.15 K, x2 = 0.74	1003.2 ± 2.7	0.9843 ± 0.051
308.15 K, x2 = 0.83	995 ± 2.7	0.943 ± 0.051
308.15 K, x2 = 0.92	986.9 ± 2.8	0.9043 ± 0.051
313.15 K, x2 = 0	1055.2 ± 2	1.464 ± 0.051
313.15 K, x2 = 0.12	1047.2 ± 2.4	1.371 ± 0.053
313.15 K, x2 = 0.24	1039.4 ± 2.4	1.278 ± 0.053
313.15 K, x2 = 0.35	1031.5 ± 2.5	1.194 ± 0.053
313.15 K, x2 = 0.45	1023.7 ± 2.5	1.117 ± 0.053
313.15 K, x2 = 0.55	1015.8 ± 2.6	1.05 ± 0.052
313.15 K, x2 = 0.65	1007.9 ± 2.6	0.9955 ± 0.051
313.15 K, x2 = 0.74	999.8 ± 2.7	0.9504 ± 0.051
313.15 K, x2 = 0.83	991.3 ± 2.8	0.916 ± 0.051
313.15 K, x2 = 0.92	982.8 ± 2.8	0.8847 ± 0.051
